Results: the supplement of paper PMC10307832

Legend:
Assay in all cases: relative viability (nuclei count vs DMSO), 5 days (fraction); higher = more cells survive
[1] = tested on: NCI-H2009
In short: (§1)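 Nuclei were stained with Hoechst during a one-step fixation (final 0.05% Triton X-100, 1% formaldehyde, 1 ug/ml Hoechst) carried out 5 days after dosing, then counted on 4× images. The cells, lung cancer lines in 1536-well plates, had been dosed by pin tool the day after seeding with one drug alone or a fixed anchor-drug dose plus five library-drug doses (not always all listed) in √10 steps. Relative viability is the nuclei count in treated wells divided by that in vehicle wells, and each value is the median of duplicate plates.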

[2] = tested on: NCI-H1355
In short: as §1

[3] = tested on: PC-3 [JPC-3]
In short: as §1

[4] = tested on: NCI-H460
In short: as §1

[5] = tested on: NCI-H727
In short: as §1

[6] = tested on: NCI-H520
In short: as §1

[7] = tested on: PC-14
In short: as §1

[8] = tested on: NCI-H1975
In short: as §1

[9] = tested on: NCI-H2170
In short: as §1

[10] = tested on: NCI-H1793
In short: as §1

[11] = tested on: NCI-H2126
In short: as §1

[12] = tested on: NCI-H1993
In short: as §1

[13] = tested on: NCI-H1944
In short: as §1

[14] = tested on: NCI-H2347
In short: as §1

[15] = tested on: NCI-H647
In short: as §1

[16] = tested on: NCI-H1666
In short: as §1

[17] = tested on: SK-LU-1
In short: as §1

[18] = tested on: NCI-H441
In short: as §1

[19] = tested on: LCLC-97TM1
In short: as §1

[20] = tested on: SW 1573
In short: as §1

[21] = tested on: EMC-BAC-2
In short: as §1

[22] = tested on: NCI-H1755
In short: as §1

`O=C(O)CCCCC(CCSCc1ccccc1)SCc1ccccc1` (centres undefined) [CPI-613] + CC(=O)Nc1cccc(-n2c(=O)n(C3CC3)c(=O)c3c(Nc4ccc(I)cc4F)n(C)c(=O)c(C)c32)c1 [Trametinib] (partner 0.02 µM) gave a relative viability ([1]; first compound 5 µM) of 0.319, a relative viability ([1]; first compound 15.81 µM) of 0.257 and a relative viability ([1]; first compound 50 µM) of 0.302. It also gave a relative viability ([1]; first compound 158.11 µM) of 0.081, a relative viability ([1]; first compound 500 µM) of 0.027 and a relative viability ([2]; first compound 5 µM) of 0.44. For the same molecule, the relative viability ([2]; first compound 15.81 µM) was 0.409, the relative viability ([2]; first compound 50 µM) was 0.42 and the relative viability ([2]; first compound 158.11 µM) was 0.27. The relative viability ([2]; first compound 500 µM) was 0.112, the relative viability ([3]; first compound 5 µM) was 0.659 and the relative viability ([3]; first compound 50 µM) was 0.712. The relative viability ([3]; first compound 158.11 µM) was 0.321, the relative viability ([3]; first compound 500 µM) was 0.433 and the relative viability ([4]; first compound 5 µM) was 0.128. It also gave a relative viability ([4]; first compound 15.81 µM) of 0.132, a relative viability ([4]; first compound 50 µM) of 0.116 and a relative viability ([4]; first compound 158.11 µM) of 0.0278. It also gave a relative viability ([4]; first compound 500 µM) of 0.0229, a relative viability ([5]; first compound 5 µM) of 0.393 and a relative viability ([5]; first compound 15.81 µM) of 0.389. For the same molecule, the relative viability ([5]; first compound 50 µM) was 0.396, the relative viability ([5]; first compound 158.11 µM) was 0.374 and the relative viability ([5]; first compound 500 µM) was 0.339. It also gave a relative viability ([6]; first compound 5 µM) of 0.691, a relative viability ([6]; first compound 15.81 µM) of 0.708 and a relative viability ([6]; first compound 50 µM) of 0.552. The relative viability ([6]; first compound 158.11 µM) was 0.16, the relative viability ([6]; first compound 500 µM) was 0.0957 and the relative viability ([7]; first compound 5 µM) was 0.651. The relative viability ([7]; first compound 15.81 µM) was 0.549, the relative viability ([7]; first compound 50 µM) was 0.72 and the relative viability ([7]; first compound 158.11 µM) was 0.108. For the same molecule, the relative viability ([7]; first compound 500 µM) was 0.0098, the relative viability ([8]; first compound 5 µM) was 0.395 and the relative viability ([8]; first compound 15.81 µM) was 0.355. For the same molecule, the relative viability ([8]; first compound 50 µM) was 0.272, the relative viability ([8]; first compound 158.11 µM) was 0.348 and the relative viability ([8]; first compound 500 µM) was 0.0712. For the same molecule, the relative viability ([9]; first compound 5 µM) was 0.95, the relative viability ([9]; first compound 15.81 µM) was 0.968 and the relative viability ([9]; first compound 50 µM) was 0.892. For the same molecule, the relative viability ([9]; first compound 158.11 µM) was 0.686, the relative viability ([9]; first compound 500 µM) was 0.546 and the relative viability ([10]; first compound 5 µM) was 0.429. For the same molecule, the relative viability ([10]; first compound 15.81 µM) was 0.413, the relative viability ([10]; first compound 50 µM) was 0.405 and the relative viability ([10]; first compound 158.11 µM) was 0.225. The relative viability ([10]; first compound 500 µM) was 0.0839, the relative viability ([11]; first compound 5 µM) was 0.528 and the relative viability ([11]; first compound 15.81 µM) was 0.538. The relative viability ([11]; first compound 50 µM) was 0.615, the relative viability ([11]; first compound 158.11 µM) was 0.232 and the relative viability ([11]; first compound 500 µM) was 0.193. It also gave a relative viability ([12]; first compound 5 µM) of 0.466, a relative viability ([12]; first compound 15.81 µM) of 0.456 and a relative viability ([12]; first compound 50 µM) of 0.528. It also gave a relative viability ([12]; first compound 158.11 µM) of 0.51, a relative viability ([12]; first compound 500 µM) of 0.291 and a relative viability ([13]; first compound 5 µM) of 0.427. The relative viability ([13]; first compound 15.81 µM) was 0.398, the relative viability ([13]; first compound 50 µM) was 0.412 and the relative viability ([13]; first compound 158.11 µM) was 0.259. The relative viability ([13]; first compound 500 µM) was 0.28, the relative viability ([14]; first compound 5 µM) was 0.256 and the relative viability ([14]; first compound 15.81 µM) was 0.232. For the same molecule, the relative viability ([14]; first compound 50 µM) was 0.259, the relative viability ([14]; first compound 158.11 µM) was 0.22 and the relative viability ([14]; first compound 500 µM) was 0.206. The relative viability ([15]; first compound 5 µM) was 0.378, the relative viability ([15]; first compound 15.81 µM) was 0.388 and the relative viability ([15]; first compound 50 µM) was 0.38. It also gave a relative viability ([15]; first compound 158.11 µM) of 0.0824, a relative viability ([15]; first compound 500 µM) of 0.0504 and a relative viability ([16]; first compound 5 µM) of 0.888. The relative viability ([16]; first compound 15.81 µM) was 0.821, the relative viability ([16]; first compound 50 µM) was 0.796 and the relative viability ([16]; first compound 158.11 µM) was 0.488. It also gave a relative viability ([16]; first compound 500 µM) of 0.394, a relative viability ([17]; first compound 5 µM) of 0.452 and a relative viability ([17]; first compound 15.81 µM) of 0.477. For the same molecule, the relative viability ([17]; first compound 50 µM) was 0.365, the relative viability ([17]; first compound 158.11 µM) was 0.366 and the relative viability ([17]; first compound 500 µM) was 0.129. For the same molecule, the relative viability ([18]; first compound 5 µM) was 0.426, the relative viability ([18]; first compound 15.81 µM) was 0.429 and the relative viability ([18]; first compound 50 µM) was 0.343. It also gave a relative viability ([18]; first compound 158.11 µM) of 0.322, a relative viability ([18]; first compound 500 µM) of 0.003 and a relative viability ([19]; first compound 5 µM) of 0.202. It also gave a relative viability ([19]; first compound 15.81 µM) of 0.162, a relative viability ([19]; first compound 50 µM) of 0.153 and a relative viability ([19]; first compound 158.11 µM) of 0.0713. The relative viability ([19]; first compound 500 µM) was 0.0622, the relative viability ([20]; first compound 5 µM) was 0.557 and the relative viability ([20]; first compound 15.81 µM) was 0.433. It also gave a relative viability ([20]; first compound 50 µM) of 0.482, a relative viability ([20]; first compound 158.11 µM) of 0.133 and a relative viability ([20]; first compound 500 µM) of 0.0735. It also gave a relative viability ([21]; first compound 5 µM) of 0.928, a relative viability ([21]; first compound 15.81 µM) of 0.884 and a relative viability ([21]; first compound 50 µM) of 0.906. It also gave a relative viability ([21]; first compound 158.11 µM) of 0.521, a relative viability ([21]; first compound 500 µM) of 0.639 and a relative viability ([22]; first compound 5 µM) of 0.712. It also gave a relative viability ([22]; first compound 15.81 µM) of 0.775, a relative viability ([22]; first compound 50 µM) of 0.75 and a relative viability ([22]; first compound 158.11 µM) of 0.702. It also gave a relative viability ([22]; first compound 500 µM) of 0.69.
